Laboratory results reported in ChEMBL document CHEMBL3885861, “Open TG-GATES”.
Counter-ions that a name gives are not always drawn.

Species on record: Rattus norvegicus
Assay: Open TG-GATES - Regimen: Single
Assay type: toxicity, organism-based, Sprague-Dawley
Set-up: regimen Single, gender Male, age 6 weeks
Conditions: in vivo, ip, 800 mg/kg, route intraperitoneal injection, dose level High; for APTT / Bas / Eos / Fbg / Hb / Ht / Lym / MCH / MCHC / MCV / Mono / Neu / PT / Plat / RBC / Ret / WBC: tissue Blood; for KIDNEY_L / KIDNEY_R / KIDNEY_TOTAL: tissue Kidney; for LIVER: tissue Liver; for A/G / ALP / ALT / AST / BUN / CRE / Ca / Cl / DBIL / GLC / IP / K / LDH / Na / PL / RALB / TBIL / TC / TG / TP / gamma-GTP: tissue Plasma

CCOC(=O)/C=C\C(=O)OCC [DIETHYL MALEATE]
TERMINAL_BW (3 h): 200.3 g
APTT (3 h): 17 s
Bas (3 h): 0%
Eos (3 h): 1.4%
Fbg (3 h): 195.6 mg/dL
Hb (3 h): 14.1 g/dL
Ht (3 h): 42.3%
Lym (3 h): 62.4%
MCH (3 h): 21.3 pg
MCHC (3 h): 33.4%
MCV (3 h): 63.9 fL
Mono (3 h): 7.8%
Neu (3 h): 28.4%
PT (3 h): 13.2 s
Plat (3 h): 123.8 x10_4/uL
RBC (3 h): 662.6 x10_4/ul
Ret (3 h): 9.9%
WBC (3 h): 59.8 x10_2/uL
KIDNEY_L (3 h): 0.9 g
KIDNEY_R (3 h): 0.9 g
KIDNEY_TOTAL (3 h): 1.8 g
LIVER (3 h): 7.9 g
A/G (3 h): 1.7
ALP (3 h): 764.4 IU/L
ALT (3 h): 48.8 IU/L
AST (3 h): 96.2 IU/L
BUN (3 h): 19.2 mg/dL
CRE (3 h): 0.5 mg/dL
Ca (3 h): 10.7 mg/dL
Cl (3 h): 105.2 meq/L
DBIL (3 h): 0.01 mg/dL
GLC (3 h): 218.6 mg/dL
IP (3 h): 10.8 mg/dL
K (3 h): 5.2 meq/L
LDH (3 h): 209.4 IU/L
Na (3 h): 136 meq/L
PL (3 h): 101.8 mg/dL
RALB (3 h): 3.5 g/dL
TBIL (3 h): 0.5 mg/dL
TC (3 h): 59.4 mg/dL
TG (3 h): 20.2 mg/dL
TP (3 h): 5.5 g/dL
gamma-GTP (3 h): 1 IU/L
TERMINAL_BW (6 h): 195.6 g
APTT (6 h): 16.8 s
Bas (6 h): 0%
Eos (6 h): 0.8%
Fbg (6 h): 206.2 mg/dL
Hb (6 h): 14.2 g/dL
Ht (6 h): 42.4%
Lym (6 h): 71.8%
MCH (6 h): 22.1 pg
MCHC (6 h): 33.5%
MCV (6 h): 65.9 fL
Mono (6 h): 8.6%
Neu (6 h): 18.8%
PT (6 h): 12.2 s
Plat (6 h): 126 x10_4/uL
RBC (6 h): 644.2 x10_4/ul
Ret (6 h): 10.4%
WBC (6 h): 78.9 x10_2/uL
KIDNEY_L (6 h): 0.9 g
KIDNEY_R (6 h): 0.9 g
KIDNEY_TOTAL (6 h): 1.8 g
LIVER (6 h): 7.6 g
A/G (6 h): 2
ALP (6 h): 784.8 IU/L
ALT (6 h): 53.2 IU/L
AST (6 h): 101 IU/L
BUN (6 h): 22 mg/dL
CRE (6 h): 0.5 mg/dL
Ca (6 h): 10.9 mg/dL
Cl (6 h): 105.6 meq/L
DBIL (6 h): 0.012 mg/dL
GLC (6 h): 204 mg/dL
IP (6 h): 10.2 mg/dL
K (6 h): 5.4 meq/L
LDH (6 h): 205 IU/L
Na (6 h): 136.2 meq/L
PL (6 h): 124.6 mg/dL
RALB (6 h): 3.7 g/dL
TBIL (6 h): 0.5 mg/dL
TC (6 h): 77.6 mg/dL
TG (6 h): 28.2 mg/dL
TP (6 h): 5.6 g/dL
gamma-GTP (6 h): 1 IU/L
TERMINAL_BW (9 h): 191 g
APTT (9 h): 16.8 s
Bas (9 h): 0%
Eos (9 h): 0.8%
Fbg (9 h): 190.4 mg/dL
Hb (9 h): 13.7 g/dL
Ht (9 h): 40.9%
Lym (9 h): 63.6%
MCH (9 h): 21.5 pg
MCHC (9 h): 33.5%
MCV (9 h): 64 fL
Mono (9 h): 8.6%
Neu (9 h): 27.2%
PT (9 h): 12.4 s
Plat (9 h): 126 x10_4/uL
RBC (9 h): 638 x10_4/ul
Ret (9 h): 8.8%
WBC (9 h): 90.6 x10_2/uL
KIDNEY_L (9 h): 0.9 g
KIDNEY_R (9 h): 0.9 g
KIDNEY_TOTAL (9 h): 1.8 g
LIVER (9 h): 7.1 g
A/G (9 h): 2.3
ALP (9 h): 702.8 IU/L
ALT (9 h): 38.6 IU/L
AST (9 h): 101.8 IU/L
BUN (9 h): 19.2 mg/dL
CRE (9 h): 0.4 mg/dL
Ca (9 h): 10.4 mg/dL
Cl (9 h): 106 meq/L
DBIL (9 h): 0 mg/dL
GLC (9 h): 195 mg/dL
IP (9 h): 9.5 mg/dL
K (9 h): 4.9 meq/L
LDH (9 h): 134.8 IU/L
Na (9 h): 137 meq/L
PL (9 h): 115.6 mg/dL
RALB (9 h): 3.6 g/dL
TBIL (9 h): 0.5 mg/dL
TC (9 h): 71.2 mg/dL
TG (9 h): 15 mg/dL
TP (9 h): 5.2 g/dL
gamma-GTP (9 h): 2 IU/L
TERMINAL_BW (24 h): 198.4 g
APTT (24 h): 15.2 s
Bas (24 h): 0%
Eos (24 h): 0.8%
Fbg (24 h): 183 mg/dL
Hb (24 h): 13.2 g/dL
Ht (24 h): 39.6%
Lym (24 h): 79.2%
MCH (24 h): 21.7 pg
MCHC (24 h): 33.4%
MCV (24 h): 65 fL
Mono (24 h): 5.2%
Neu (24 h): 15%
PT (24 h): 11.7 s
Plat (24 h): 122 x10_4/uL
RBC (24 h): 609.6 x10_4/ul
Ret (24 h): 8.5%
WBC (24 h): 126.8 x10_2/uL
KIDNEY_L (24 h): 0.9 g
KIDNEY_R (24 h): 0.9 g
KIDNEY_TOTAL (24 h): 1.8 g
LIVER (24 h): 8.9 g
A/G (24 h): 2.3
ALP (24 h): 756.4 IU/L
ALT (24 h): 34.8 IU/L
AST (24 h): 67.6 IU/L
BUN (24 h): 18 mg/dL
CRE (24 h): 0.4 mg/dL
Ca (24 h): 10.5 mg/dL
Cl (24 h): 106.4 meq/L
DBIL (24 h): 0.022 mg/dL
GLC (24 h): 189.2 mg/dL
IP (24 h): 7.2 mg/dL
K (24 h): 5.2 meq/L
LDH (24 h): 123 IU/L
Na (24 h): 138.6 meq/L
PL (24 h): 135.8 mg/dL
RALB (24 h): 3.7 g/dL
TBIL (24 h): 0.4 mg/dL
TC (24 h): 69.4 mg/dL
TG (24 h): 98 mg/dL
TP (24 h): 5.3 g/dL
gamma-GTP (24 h): 2 IU/L
